Source: the supplement of paper PMC10307832

What was measured:
Experiment in all cases: relative viability (nuclei count vs DMSO), 5 days (fraction); higher = more cells survive
IU1-47 + Foretinib = compound: CC1=CC(=C(N1C2=CC=C(C=C2)Cl)C)C(=O)CN3CCCCC3 [IU1-47] + COc1cc2c(Oc3ccc(NC(=O)C4(C(=O)Nc5ccc(F)cc5)CC4)cc3F)ccnc2cc1OCCCN1CCOCC1 [Foretinib] (partner 0.25 µM)
Method in brief: (§1)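 One day after seeding in 1536-well plates, lung cancer cell lines were dosed by pin tool. Dosing was either single-drug or a fixed anchor-drug dose plus five library-drug doses (not always all listed) in √10 steps. After 5 days, nuclei were stained in one fix-and-stain step and counted on 4× images, and relative viability is the nuclei count of treated wells over that of vehicle wells, given as the median of duplicate plates.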

FG-4592 + Tozasertib = compound: Cc1nc(C(=O)NCC(=O)O)c(O)c2ccc(Oc3ccccc3)cc12 [FG-4592] + Cc1cc(Nc2cc(N3CCN(C)CC3)nc(Sc3ccc(NC(=O)C4CC4)cc3)n2)n[nH]1 [Tozasertib] (partner 0.1 µM)
Method in brief: as §1

FG-4592 + Olaparib = compound: Cc1nc(C(=O)NCC(=O)O)c(O)c2ccc(Oc3ccccc3)cc12 [FG-4592] + O=C(c1cc(Cc2n[nH]c(=O)c3ccccc23)ccc1F)N1CCN(C(=O)C2CC2)CC1 [Olaparib] (partner 8 µM)
Method in brief: as §1

IU1-47 + Pictilisib = compound: CC1=CC(=C(N1C2=CC=C(C=C2)Cl)C)C(=O)CN3CCCCC3 [IU1-47] + CS(=O)(=O)N1CCN(Cc2cc3nc(-c4cccc5[nH]ncc45)nc(N4CCOCC4)c3s2)CC1 [Pictilisib] (partner 1 µM)
Method in brief: as §1

Cell Line	relative viability (IU1-47 + Foretinib; first compound 0.08 µM)	relative viability (IU1-47 + Foretinib; first compound 0.253 µM)	relative viability (IU1-47 + Foretinib; first compound 0.8 µM)	relative viability (IU1-47 + Foretinib; first compound 2.53 µM)	relative viability (IU1-47 + Foretinib; first compound 8 µM)	relative viability (FG-4592 + Tozasertib; first compound 0.08 µM)	relative viability (FG-4592 + Tozasertib; first compound 0.253 µM)	relative viability (FG-4592 + Tozasertib; first compound 0.8 µM)	relative viability (FG-4592 + Tozasertib; first compound 2.53 µM)	relative viability (FG-4592 + Tozasertib; first compound 8 µM)	relative viability (FG-4592 + Olaparib; first compound 0.08 µM)	relative viability (FG-4592 + Olaparib; first compound 0.253 µM)	relative viability (FG-4592 + Olaparib; first compound 0.8 µM)	relative viability (FG-4592 + Olaparib; first compound 2.53 µM)	relative viability (FG-4592 + Olaparib; first compound 8 µM)	relative viability (IU1-47 + Pictilisib; first compound 0.08 µM)	relative viability (IU1-47 + Pictilisib; first compound 0.253 µM)	relative viability (IU1-47 + Pictilisib; first compound 0.8 µM)	relative viability (IU1-47 + Pictilisib; first compound 2.53 µM)	relative viability (IU1-47 + Pictilisib; first compound 8 µM)
NCI-H2342	1.24	1.06	0.935	1.07	1.03	0.493	0.43	0.442	0.464	0.421	0.433	0.436	0.452	0.436	0.422					
SK-MES-1	0.999	1.05	0.838	0.844	0.921	0.862	0.872	0.961	0.862	0.832	0.655	0.624	0.786	0.748	0.66	0.402	0.396	0.351	0.398	0.371
HCC-366	0.872	0.92	1	0.966	1.01	0.226	0.0945	0.123	0.0834	0.0885	0.331	0.353	0.352	0.435	0.296	0.215	0.115	0.149	0.137	0.145
201T	1.31	1.22	1.26	1.05	1.09	0.856	0.965	1.06	0.998	0.946	0.841	0.794	0.843	0.878	0.827	0.672	0.682	0.709		0.664
HCC-827	1.15	1.12	0.998	1.02	1.01	0.385	0.372	0.369	0.457	0.406	0.591	0.624	0.625	0.705	0.729	1.27	1.1	1.14	0.957	1.1
NCI-H647	1.12	1.36		1.25	1.34	0.365	0.302	0.311	0.264	0.166	0.597	0.533	0.489	0.635	0.416	0.467	0.52	0.453		0.359
NCI-H2023	0.75	0.722	1		0.719	0.354	0.357	0.374	0.348	0.258	0.402	0.471	0.437	0.464	0.35	0.22	0.214	0.274	0.178	0.182
NCI-H520	0.785	0.866	0.698	1.15	0.651		0.479		0.479	0.391	0.361	0.342	0.303	0.391	0.385	0.303	0.297	0.378	0.331	0.237
RERF-LC-KJ	0.877	0.918	0.922	0.868	0.893	0.485	0.448	0.578	0.543	0.463	0.853	0.913	0.861	0.996	0.894	0.538	0.659	0.41	0.489	0.595
A-427	1.08	1.16	1.22		0.93	0.21	0.223	0.201	0.206	0.224	0.687	0.731	0.718	0.689	0.705	0.736	0.84	0.789		0.632
NCI-H441	0.873	1.15	0.986	1.13	0.864	0.679	0.521	0.712	0.619	0.688	0.431	0.462	0.49	0.502	0.493	0.483	0.486	0.464	0.504	0.43
NCI-H1703	0.342	0.315	0.278	0.377	0.361						0.428	0.337	0.336	0.341	0.423	0.254	0.255	0.218	0.32	0.25
NCI-H1792											0.487	0.432		0.457	0.497	0.26	0.318	0.253	0.165	0.286
Calu-6	1	1.01	0.934	0.917	0.874						0.543	0.575	0.653	0.56	0.648	1.13	1.07	0.861	0.972	0.856
SK-LU-1	0.855	0.752	0.879	0.852	0.868	0.317	0.331	0.295	0.31	0.273	0.322	0.396	0.491	0.444	0.472	0.668	0.728	0.578	0.58	0.382
PC-3 [JPC-3]	1.13	1.11	1.12	1.08	1.05	0.872	0.854	0.935	0.901	0.854	1.1	0.975		1.1	1.12	0.756	0.745	0.852		0.734
EMC-BAC-2	1.07	1.11	0.984	1.02	1.05	0.262	0.277	0.27	0.301	0.286	0.469	0.491	0.456	0.49	0.492	0.547	0.51	0.545	0.572	0.489
LK-2	1.8	1.82	1.78	0.89	0.943	0.155	0.17		0.175	0.186	0.556	0.787	0.613	0.701	0.662	0.606	0.614	0.615	0.412	0.474
NCI-H2126	1.28	1.17	1.22	0.723	1.03	0.842	0.775	0.782	0.721	0.575	0.964	0.846	0.857	0.876	0.919	0.47	0.477	0.52	0.382	0.493

Cell Line	relative viability (IU1-47 + Foretinib; first compound 0.08 µM)	relative viability (IU1-47 + Foretinib; first compound 0.253 µM)	relative viability (IU1-47 + Foretinib; first compound 0.8 µM)	relative viability (IU1-47 + Foretinib; first compound 2.53 µM)	relative viability (IU1-47 + Foretinib; first compound 8 µM)	relative viability (FG-4592 + Tozasertib; first compound 0.08 µM)	relative viability (FG-4592 + Tozasertib; first compound 0.253 µM)	relative viability (FG-4592 + Tozasertib; first compound 0.8 µM)	relative viability (FG-4592 + Tozasertib; first compound 2.53 µM)	relative viability (FG-4592 + Tozasertib; first compound 8 µM)	relative viability (FG-4592 + Olaparib; first compound 0.08 µM)	relative viability (FG-4592 + Olaparib; first compound 0.253 µM)	relative viability (FG-4592 + Olaparib; first compound 0.8 µM)	relative viability (FG-4592 + Olaparib; first compound 2.53 µM)	relative viability (FG-4592 + Olaparib; first compound 8 µM)	relative viability (IU1-47 + Pictilisib; first compound 0.08 µM)	relative viability (IU1-47 + Pictilisib; first compound 0.253 µM)	relative viability (IU1-47 + Pictilisib; first compound 0.8 µM)	relative viability (IU1-47 + Pictilisib; first compound 2.53 µM)	relative viability (IU1-47 + Pictilisib; first compound 8 µM)
NCI-H3122		0.94	1.02	1.07	0.976	0.38	0.361	0.348	0.418	0.35	0.637	0.606	0.681	0.656	0.661	0.556	0.615	0.666	0.625	0.581
NCI-H1975	0.967	0.949	0.971	1.1	0.858	0.772	0.78	0.868	0.783	0.683	0.786	0.747	0.883	0.849	0.721	0.274	0.293	0.305	0.281	0.256
NCI-H1944	1.03	0.954	0.905	0.824	0.759	0.254	0.252	0.224	0.242	0.254	0.437	0.392	0.443	0.376	0.419	0.361	0.371	0.335		0.356
LU99A	0.768	0.759	0.859	0.932	0.702	0.289	0.293	0.243	0.334	0.297	0.268	0.242		0.276	0.29	0.35	0.337	0.275	0.312	0.298
SW 1573	1.03	0.965	1.11	0.749	1.02	0.205	0.173	0.207	0.171	0.198	0.426	0.632	0.597	0.612	0.483	0.524	0.563	0.391	0.553	0.471
NCI-H2347	0.707	0.605	0.843	1.17	1.1	0.415		0.621	0.315	0.52	0.622	0.485	0.543	0.596	0.607	0.505	0.651	0.446	0.448	0.457
NCI-H2009	1.24	1.25	1.18	1.22	1.23	0.715	0.58	0.758	0.713	0.655	0.663	0.637	0.715	0.718	0.621	0.876	0.948	0.815	0.369	0.882
HCC-15	1.07	1.11	1.15	1.01	1.05	0.333	0.42	0.395	0.391	0.444	0.684	0.709	0.741	0.615	0.719	0.8	0.703	0.76	0.427	0.65
HCC-44						1.08	0.84		0.783	0.852	0.971	0.921	1.03	1	1.01	0.551	0.603	0.665	0.672	0.593
COR-L23	1.14	1.09	1.08	1.02	1.16	0.186	0.212	0.217	0.153	0.171	0.331	0.358	0.358	0.3	0.369	0.936	0.877	0.874	0.652	0.905
NCI-H1299	1.1	1.11	1.09	1.18	1.01						0.935	0.906	1.01	1.01	0.971	0.893	0.881	0.749	1.05	0.911
NCI-H1648						0.536	0.527	0.515	0.47	0.542	0.712	0.647		0.483	1.43					
NCI-H1563	0.855	0.988	0.967	0.886	0.864											0.69	0.672	0.663	0.627	0.732
A549	0.9	1.09	0.983	1.08	0.889						0.252	0.274		0.44	0.385	0.637	0.53	0.542	0.673	0.423
NCI-H522						0.493	0.625	0.545	0.539	0.437	0.766	0.644		0.588	0.678					
NCI-H1623	1.05	0.903	0.892	0.841	0.833	0.434	0.422	0.404	0.45	0.436										
SW 900	1.24	0.849	0.852	1.18	0.734	0.575	0.675	0.527	0.417	0.531		0.946		0.812	0.794					
IA-LM	1.02	1.12	0.936	1.17	1						0.712	0.623	0.663	0.81	0.727	0.333	0.374	0.306	0.394	0.348
EBC-1	0.0995	0.107	0.0951	0.111	0.102						0.83	0.663	0.718	0.659	0.662	0.45	0.387	0.416	0.501	0.336
